{"source": "patent US20250064724A1", "about": "“MODULAR FIELD-STABLE BIO-ARTIFICIAL BLOOD SUBSTITUTE” (VIRGINIA COMMONWEALTH UNIVERSITY, priority 2021, published 2025)", "key": {"[1]": {"tested_on": "nitric oxide synthase (NOS)", "conditions": "cited from earlier work; for blockade of the L-Arginine effect in crystalloid resuscitation: competitive NOS inhibitors"}, "shocked rats [2]": {"tested_on": "shocked rats", "assay": "Example 3: PEG-20 k and delayed or nitric oxide modified HBOC in rodent lethal hemorrhagic shock", "assay_type": "in vivo, rat", "conditions": "Example 3, present tense", "protocol": "Rats are bled to 35 mmHg and held there until lactate reaches 9-10 mM, at which time, LVR solutions are given to resuscitate them. Thirty minutes after resuscitation, another 10% blood volume is removed and the plasma component is immediately separated and given back. A loop of distal ileum is exposed and a 1 cm enterotomy is made along the anti-mesenteric border to access the mucosal surface for hourly recordings of capillary blood flow by Orthogonal Polarization Spectral Imaging (OPSI) and for biopsies of bowel mucosa at various times before. The biopsies are used for histological analysis and for nitric oxide metabolism studies ex-vivo in a tissue culture system.\nThe albumin solution is a control for both the protein and oncotic effects of the HBOC per se and for the delayed volume administration at 2 and 4 hours after the initial PEG-20 k resuscitation. The total volume infusions for these studies is maintained at 6.8 ml/kg to remain in the low volume range (10% estimated blood volume). All surgical preparations are sterile so any animals surviving after 5 hours from resuscitation can be recovered the next day. N=10 rats per group. […]\nIn both Part 1 and Part 2, the primary measured outcomes include the rate of oxygen debt repayment on the first operative day and the re-accumulation of new oxygen debt the following days in rats that survive the initial 5-hour intra-operative observation period. […] Other secondary outcomes measured in each experiment include MAP, blood labs, intestinal microcirculation measured with orthogonal polarization spectral imaging (OPSI) through a small enterotomy in the distal ileum, plasma Th1 cytokines, terminal bowel histology analysis, and subject survival time. Finally, local tissue production of nitric oxide, nitrosothiols, and nitric oxide metabolites is assessed from serial bowel mucosa biopsies using incubations of tissue in a Dubanoff metabolic incubator and a Sievers-Style chemiluminescence NO analyzer."}, "anesthetized rats [3]": {"tested_on": "anesthetized rats", "conditions": "300 mg/kg L-Arginine with 6.8 ml/kg HBOC-201 IV, listed as L-Arg", "excerpt": "This hypertension is believed due to the local scavenging of nitric oxide in the vessel wall. As the normal vasodilator tone produced by basal nitric oxide is removed by the HBOC hemoglobin, the vasoconstrictor tone now prevails and the blood pressure rises secondary to vasoconstriction of the resistance vessels.\nStudies were designed to test how nitric oxide substrate loading before HBOC prevents or attenuates the NO scavenging effects of the HBOC on physiological, biochemical, and survival outcomes."}, "anesthetized rats [4]": {"tested_on": "anesthetized rats", "conditions": "literature reference (22); cited from earlier work"}, "shocked rats [5]": {"tested_on": "shocked rats", "assay": "Example 4: fibrinogen add back after PEG-20 k resuscitation, controlled and uncontrolled hemorrhage in rats", "assay_type": "in vivo, rat", "conditions": "fibrinogen after PEG-20 k IV solution, controlled or uncontrolled hemorrhagic shock", "protocol": "Changes in coagulation and platelet function is measured in the controlled lethal shock model in adult anesthetized rats in groups that receive PEG-20 k IV solution alone and those that receive PEG-20 k IV solution and supplemental human fibrinogen (200 mg/kg, IV, in 300 μl LR). The control group also receives 300 ul LR without RiaSTAP®. Samples of whole rat blood (1.0-ml) are taken at baseline and at various times after resuscitation for thromboelastography (TEG) analysis of coagulation and platelet function. Other assays are done to measure fibrinogen levels, intrinsic and extrinsic coagulation pathway coagulation, and platelet mapping studies are conducted to answer some mechanistic questions about platelet function defects. Samples are collected out to 4 hours, which is the time when coagulation and platelet function begins to return to baseline levels after PEG-20 k resuscitation. Each group uses 10 adult Sprague-Dawley rats.\nCoagulation and platelet function outcomes are tested by using a clinically relevant model of mixed polytrauma hemorrhagic shock that involves severe bleeding from both controllable and uncontrollable sources. Our lab has developed a rodent model of severe hemorrhagic shock where tail bleeding (controlled source) is combined with blood loss from an abdominal penetrating injury to the spleen (splenic laceration). […]"}, "[6]": {"tested_on": "platelet IIb/IIIa receptor", "conditions": "in vivo", "excerpt": "The hypocoagulable state and functional hypofibrinogenemia that exists immediately after severe blood loss and PEG-20 k resuscitation is mitigated by the concurrent addition of reconstituted lyophilized human fibrinogen (RiaSTAP®). The effects of severe blood loss after hemorrhage leads to direct depletion of clotting factors including fibrinogen. Furthermore, resuscitation with PEG-20 k IV solution causes rapid and long acting volume expansion by the osmotic movement of isotonic fluid from the intracellular and interstitial spaces back into the intravascular space, which further dilutes fibrinogen concentrations. […] Together, these forces tend to dilute out plasma fibrinogen concentrations that likely contribute to both the transient hypocoagulable state and the functional hypofibrinogenemia seen after PEG-20 k resuscitation in severe blood loss. Therefore, it makes sense that a simple add back of fibrinogen to the system after PEG-20 k IV solution resuscitation will correct the defect and improve coagulation and platelet function. […]\nChanges in coagulation and platelet function is measured in the controlled lethal shock model in adult anesthetized rats in groups that receive PEG-20 k IV solution alone and those that receive PEG-20 k IV solution and supplemental human fibrinogen (200 mg/kg, IV, in 300 μl LR). […]"}}}
{"compound": "N=C(N)NCCC[C@@H](N)C(=O)O", "note": "(racemic) [D-Arginine]", "values": [{"measurement": "blockade of the L-Arginine effect in crystalloid resuscitation", "setting": "[1]", "result": "blocked"}, {"measurement": "blockade of the L-Arginine effect with HBOC", "setting": "shocked rats [2]", "result": "this effect is blocked"}]}
{"compound": "N=C(N)NCCC[C@H](N)C(=O)O", "note": "[L-Arginine]", "values": [{"measurement": "crystalloid resuscitation outcome with L-Arginine", "setting": "[1]; severe hemorrhagic shock, earlier work of the lab (20)", "result": "dramatically improved"}, {"measurement": "effect of co-administered L-Arginine on the blood pressure response to HBOC", "setting": "anesthetized rats [3]", "result": "caused vasodilatation that caused the blood pressure to drop"}, {"measurement": "resuscitation outcome with L-Arginine before HBOC", "setting": "shocked rats [2]; after PEG-20 k", "result": "Improvements are seen"}]}
{"compound": "COC(=O)[C@@H](N)CCCNC(=N)N[N+](=O)[O-]", "note": "[L-NAME, L-Nitro Arginine Methyl Ester]", "values": [{"measurement": "reversal of the L-Arg blood pressure effect by nitric oxide synthetase inhibitor", "setting": "anesthetized rats [4]", "result": "reversal"}, {"measurement": "blockade of the L-Arginine effect in crystalloid resuscitation", "setting": "[1]", "result": "blocked"}, {"measurement": "blockade of the L-Arginine effect with HBOC", "setting": "shocked rats [2]", "result": "this effect is blocked"}]}
{"compound": "fibrinogen", "values": [{"measurement": "coagulation outcomes, bleeding times and volumes", "setting": "shocked rats [5]", "result": "reduces bleeding"}, {"measurement": "coagulation outcomes, bleeding times and volumes", "setting": "shocked rats [5]; listed as concentrated fibrinogen", "result": "significantly improves coagulation outcomes and decreases uncontrolled bleeding times and volumes"}]}
{"compound": "polyethylene glycol [PEG-20 k]", "values": [{"measurement": "coagulopathy on TEG", "setting": "[6]", "result": "minor coagulopathy on TEG"}, {"measurement": "time when coagulation and platelet function begins to return to baseline levels", "setting": "[6]", "result": 4, "unit": "h"}]}
